What was measured:
[1] = biological target: T1, CD26/DPPIV (Mus musculus, UniProt P28843); assay: CD26/DPPIV peptidase activity of C57BL/6 BM cells (Gly-Pro-pNA); type: cell-based
T1 construct: endogenous in cells; host or cells: sorted mouse (C57BL/6) bone marrow cells
Protocol: Proteolytic activity was determined by measurement of the amount of p-nitroanilide (pNA) formed in the supernatant at 405 nm. One thousand cells per well in the 96-well flat-bottomed plate were incubated at 37° C. with 4 mM Gly-Pro-pNA in 100 μL PBS buffer (pH 7.4) containing 10 mg/ml BSA. Absorbance was measured at 405 nm on a microplate spectrofluorometer (SpectraMax 190, Molecular Devices, Sunnyvale, Calif.) every two minutes and pmoles of pNA formed were calculated by comparison to a pNA standard curve. The results were plotted as pmoles pNA versus minutes and the slope was calculated at the linear portion of the curve giving a measure of DPPIV activity expressed as pmoles/min (U) per 1000 cells. Tests were run using three separate samples (n=3 for each sample); cell-free blanks, substrate-free blanks were run in parallel.

[2] = test system: C57BL/6 mice; assay: G-CSF induced mobilization of HSC/HPC in C57BL/6 mice (progenitor cell assays of peripheral blood); type: in vivo; conditions: 5 μmol/mouse 2×/day s.c. alone, without G-CSF
[3] = test system: C57BL/6 mice; assay: as above; type: in vivo, mouse; conditions: inhibitor 5 μmol/mouse 2×/day s.c. during G-CSF mobilization, C57BL/6
Protocol: (§1) Mobilization was achieved by treating mice with 2.5 μg (micrograms) G-CSF/mouse 2×/day s.c. for 2 days (Broxmeyer H E, et al. J Exp Med. 1999; 189:1987-1992). Mice simultaneously treated with a specific CD26 inhibitor also underwent treatment with either 5 μmol Diprotin A/mouse 2×/day s.c. for 2 days or 5 μmol Val-Pyr/mouse 2×/day s.c. for 2 days. Diprotin A was obtained commercially (Peptides International, Louisville, Ky.) and Val-Pyr was obtained as a gift from Nicolai Wagtmann (Novo Nordisk, Denmark). After either G-CSF or G-CSF plus CD26 inhibitor treatment peripheral blood cells were collected and total cellular nuclearity was measured and progenitor cell assays were performed using total peripheral blood cells.
(§2) One-hundred thousand mouse G-CSF mobilized peripheral blood cells were plated in triplicate for colony formation by CFU-GM, BFU-E, and CFU-GEMM and scored at 7 days incubation as previously described (Cooper S, Broxmeyer H E. Measurement of interleukin-3 and other hematopoietic growth factors, such as GM-CSF, G-CSF, M-CSF, erkythropoietin and the potent co-stimulating cytokines steel factor and FLt-3 ligand. In: Coligan J E K A, Margulies D H, Shevach E M, Strober E, Coico R, ed. Current protocols in immunology. New York: John Wiley & Sons; 1996:6.4.1-6.4.12). Cells were plated for colony formation in 1% methylcellulose culture medium containing 30% FBS, 1 U/ml recombinant(r) human Epo, 0.1 mM Hemin, 5% Pokeweed Mitogen Spleen Conditioned Media (PWMSCM), and 50 ng/ml rmouse Steel Factor (=Stem Cell Factor, SCF).

[4] = test system: BoyJ recipient mice; assay: Short-term homing of donor Sca-1+lin- cells to recipient bone marrow; type: in vivo, mouse
Protocol: Control C57BL/6 (CD45.2^+), CD26 inhibitor treated C57BL/6 (CD45.2^+), or CD26^−/− (CD45.2^+) sorted Sca-1^+lin^− or LD donor BM cells were transplanted by tail-vein injection into lethally irradiated (1100 cGy split dose) congenic BoyJ (CD45.1^+) female recipient mice (Haneline L S, et al. Blood. 1999; 94:1-8.) Contribution of Sca^+lin^− donor cells in the context of Sca-1^+lin^− recipient cells was calculated by flow cytometric analysis of cells found in the recipient mouse BM by measuring CD45.1+ and CD45.2^+ on Sca-1^+lin^− LD cells isolated from the recipient mice 24 hours post transplant. […] Comparisons between treatment groups were made using a two-tailed Student's t-test and data was plotted as mean (M)±standard error of the mean (SEM).

[5] = test system: DBA/2 mice; assay: G-CSF induced mobilization of HSC/HPC in DBA/2 mice (progenitor cell assays of peripheral blood); type: in vivo, mouse; conditions: inhibitor treatment during G-CSF mobilization
Protocol: as §1, §2

[6] = test system: BoyJ recipient mice; assay: Non-competitive long-term engraftment; type: in vivo, mouse; conditions: six months post transplant, P<0.05, n=5
Protocol: Control C57BL/6 (CD45.2^+) or CD26 inhibitor treated C57BL/6 (CD45.2^+) LD donor BM cells were transplanted by tail-vein injection into lethally irradiated (1100 cGy split dose) congenic BoyJ (CD45.1^+) female recipient mice (Haneline L S, et al. Blood. 1999; 94:1-8). Contribution of donor cells was obtained by measuring the number of donor and residual recipient lymphocytes in the peripheral blood. The % donor contribution was calculated by flow cytometric analysis of peripheral blood lymphocytes found in the recipient mouse peripheral blood by measuring CD45.1^+ and CD45.2^+ on cells isolated from the recipient mice 1-6 months post transplant. No less than five mice from each recipient group were analyzed, each one having received a transplant of 5×10^5 pooled LD donor BM cells. Comparisons between treatment groups were made using a two-tailed Student's t-test and data was plotted as mean (M)±standard error of the mean (SEM).

[7] = test system: DBA/2 mice; assay: G-CSF induced mobilization of HSC/HPC in DBA/2 mice (progenitor cell assays of peripheral blood); type: in vivo, mouse; conditions: without G-CSF

T1 sequence (P28843 whole entry): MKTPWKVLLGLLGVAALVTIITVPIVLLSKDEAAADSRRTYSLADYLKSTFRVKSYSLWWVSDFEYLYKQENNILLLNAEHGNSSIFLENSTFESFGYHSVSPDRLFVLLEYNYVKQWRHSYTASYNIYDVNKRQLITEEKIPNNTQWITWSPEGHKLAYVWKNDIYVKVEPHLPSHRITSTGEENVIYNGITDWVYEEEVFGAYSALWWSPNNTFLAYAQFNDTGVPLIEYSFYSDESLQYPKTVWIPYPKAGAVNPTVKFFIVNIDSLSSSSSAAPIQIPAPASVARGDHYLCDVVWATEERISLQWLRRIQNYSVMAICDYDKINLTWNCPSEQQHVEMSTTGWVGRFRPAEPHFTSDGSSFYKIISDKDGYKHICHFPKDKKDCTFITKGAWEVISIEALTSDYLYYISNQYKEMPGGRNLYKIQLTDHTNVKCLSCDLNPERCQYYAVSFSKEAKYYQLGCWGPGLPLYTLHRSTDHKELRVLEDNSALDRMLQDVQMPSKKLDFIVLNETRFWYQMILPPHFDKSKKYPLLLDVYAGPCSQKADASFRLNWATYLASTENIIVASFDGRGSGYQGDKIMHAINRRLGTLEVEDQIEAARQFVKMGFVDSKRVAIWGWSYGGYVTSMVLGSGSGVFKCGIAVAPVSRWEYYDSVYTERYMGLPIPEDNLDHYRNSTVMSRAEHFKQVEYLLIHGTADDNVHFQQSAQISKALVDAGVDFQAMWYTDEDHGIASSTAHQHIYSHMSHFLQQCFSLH

Substance: Ile-Pro-Ile [Diprotin A]
- CD26 peptidase activity with inhibitor treatment ([1]; C57BL/6 BM cells, P<0.01): rapidly lost
- recovery of CD26 activity begins, time post treatment ([1]; cells washed 15 minutes post inhibitor treatment): within four hours
- effect on the mobilization of progenitors, inhibitor alone [2]: little or no effect
- reduction in BFU-E compared to G-CSF alone [3]: 29%
- reduction in CFU-GEMM compared to G-CSF alone [3]: 63%
- reduction in CFU-GM compared to G-CSF alone [3]: 59%
- increase in homing efficiency ([4]; 1×10^4 sorted Sca-1+lin- BM C57Bl/6 donor cells treated 15 minutes prior to transplant, vs untreated cells): 9 fold
- short-term homing of donor cells ([4]; donor LDBM unit treated prior to transplant, P<0.01, n=6): significant increase in short-term homing
- reduction in BFU-E compared to G-CSF alone [5]: 56%
- reduction in CFU-GEMM compared to G-CSF alone [5]: 71%
- reduction in CFU-GM compared to G-CSF alone [5]: 62%
- donor cell contribution to the formation of peripheral blood leukocytes [6]: Increased donor cell contribution
- effect on the mobilization of progenitors, inhibitor alone [7]: little or no effect

Source: patent US20080085264A1, “METHODS FOR ENHANCING STEM CELL ENGRAFTMENT DURING TRANSPLANTATION” (priority 2003, published 2008)
